From patent US7964624B1, “Inhibitors of serine proteases” (priority 2005, dated 2011)

These compounds were tested against T1, HCV NS3 protease domain (Hepatitis C virus genotype 1b, UniProt Q9WMX2) (assay: biochemical). Settings: Enzyme Assay 1 (HCV NS3 Protease Domain Peptide Cleavage Assay) activity, apparent Ki class.
T1 construct: The first 181 amino acids of NS3 (residues 1027-1207 of the viral polyprotein); hexa-histidine (C); made in house; host or cells: E. coli BL21/DE3 pLysS
T1 sequence (Q9WMX2 1027-1207, other chains not shown): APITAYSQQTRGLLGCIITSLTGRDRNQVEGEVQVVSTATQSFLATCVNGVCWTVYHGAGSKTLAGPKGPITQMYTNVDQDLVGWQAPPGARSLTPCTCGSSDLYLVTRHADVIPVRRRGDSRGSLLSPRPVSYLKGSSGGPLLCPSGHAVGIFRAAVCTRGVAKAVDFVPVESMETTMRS

| SMILES | Ki [µM] |
| --- | --- |
| CCC[C@H](NC(=O)[C@@H]1C[C@]2(CC(c3ccco3)=NO2)CN1C(=O)[C@@H](NC(=O)OC1CCOC1)C(C)(C)C)C(=O)C(=O)NC1CC1 (stereo partly drawn) [Compound 472] | > 0.5 |
| CCCC1=NO[C@]2(C1)C[C@@H](C(=O)N[C@@H](CCC)C(=O)C(=O)NC1CC1)N(C(=O)[C@@H](NC(=O)OCc1ccccc1)C(C)(C)C)C2 [Compound 235] | > 0.5 |
| CCC[C@H](NC(=O)[C@@H]1C[C@]2(CC(c3ccccc3)=NO2)CN1C(=O)NCc1cc(OC)c(OC)c(OC)c1)C(=O)C(=O)NC1CC1 [Compound 367] | > 0.5 |
| CCC[C@H](NC(=O)[C@@H]1C[C@]2(CC(c3cccc(Cl)c3)=NO2)CN1C(=O)[C@@H](NC(=O)C(C)Cn1ccc(C)n1)C(C)(C)C)C(=O)C(=O)NC1CC1 (stereo partly drawn) [Compound 474] | > 0.5 |
| CCC[C@H](NC(=O)[C@@H]1C[C@]2(CC(c3cccc(Cl)c3)=NO2)CN1C(=O)[C@@H](NC(=O)CC1CC(=O)c2ccc(OC)cc21)C(C)(C)C)C(=O)C(=O)NC1CC1 (stereo partly drawn) [Compound 487] | 0.1 to 0.5 |
| CCC[C@H](NC(=O)[C@@H]1C[C@]2(CC(c3ccc(OC)c(Cl)c3)=NO2)CN1C(=O)[C@@H](NC(=O)CC1CCOCC1)C(C)(C)C)C(=O)C(=O)NC1CC1 [Compound 279] | 0.1 to 0.5 |
| CCC[C@H](NC(=O)[C@@H]1C[C@]2(CC(c3cc(C)c(OC)c(C)c3)=NO2)CN1C(=O)[C@@H](NC(=O)O[C@H]1CCOC1)C(C)(C)C)C(=O)C(=O)NC1CC1 [Compound 224] | 0.1 to 0.5 |
| CCC[C@H](NC(=O)[C@@H]1C[C@]2(CC(c3cccc(Cl)c3)=NO2)CN1C(=O)[C@@H](NC(=O)Cn1ccc2ncccc21)C(C)(C)C)C(=O)C(=O)NC1CC1 [Compound 506] | > 0.5 |
| CCC[C@H](NC(=O)[C@@H]1C[C@]2(CC(c3cccc(C)c3)=NO2)CN1C(=O)[C@@H](NC(=O)O[C@H]1CCOC1)C(C)(C)C)C(=O)C(=O)NC1CC1 [Compound 444] | 0.1 to 0.5 |
| C=C[C@@H]1C[C@]1(NC(=O)[C@@H]1C[C@]2(CC(c3cccc(Cl)c3)=NO2)CN1C(=O)[C@@H](NC(=O)CC1CCCCC1)C(C)(C)C)C(=O)O [Compound 144] | > 0.5 |
| CCC[C@H](NC(=O)[C@@H]1C[C@]2(CC(c3ccc(OC)cc3OC)=NO2)CN1C(=O)[C@@H](NC(=O)CC1CCCCC1)C(C)(C)C)C(=O)C(=O)NC1CC1 [Compound 166] | 0.1 to 0.5 |
| CCC[C@H](NC(=O)[C@@H]1C[C@]2(CC(c3cccc(Cl)c3)=NO2)CN1C(=O)[C@@H](NC(=O)CCc1cccc(OC)c1)C(C)(C)C)C(=O)C(=O)NC1CC1 [Compound 189] | > 0.5 |
| CCC[C@H](NC(=O)[C@@H]1C[C@]2(CC(c3cccc(Cl)c3)=NO2)CN1C(=O)[C@@H](NC(=O)Nc1ccccc1)C(C)(C)C)C(=O)C(=O)NC1CC1 [Compound 558] | 0.1 to 0.5 |
| CCC[C@H](NC(=O)[C@@H]1C[C@]2(CC(c3cccc(Cl)c3)=NO2)CN1C(=O)[C@@H](NC(=O)NC(C)C)C(C)(C)C)C(=O)C(=O)NC1CC1 [Compound 379] | < 0.1 |
| CCC[C@H](NC(=O)[C@@H]1C[C@@]2(CC(c3cc(F)cc(C(F)(F)F)c3)=NO2)CN1C(=O)[C@@H](NC(=O)O[C@H]1CCOC1)C(C)(C)C)C(=O)C(=O)NC1CC1 [Compound 258] | > 0.5 |
| CCC[C@H](NC(=O)[C@@H]1C[C@]2(CC(c3ccccc3)=NO2)CN1C(=O)[C@@H](NC(C)=O)C(C)(C)C)C(=O)C(=O)NC1CC1 [Compound 228] | > 0.5 |
| CNC(=O)C(=O)C(CC1CCC1)NC(=O)[C@@H]1C[C@]2(CC(c3cccc(Cl)c3)=NO2)CN1C(=O)[C@@H](NC(=O)CC1CCCCC1)C(C)(C)C (stereo partly drawn) [Compound 231] | 0.1 to 0.5 |
| CCC[C@H](NC(=O)[C@@H]1C[C@]2(CC(c3ccc(C(C)C)cc3)=NO2)CN1C(=O)O[C@H]1CCOC1)C(=O)C(=O)NC1CC1 [Compound 405] | > 0.5 |
| CCC[C@H](NC(=O)[C@@H]1C[C@]2(CC(c3cccc(Cl)c3)=NO2)CN1C(=O)[C@@H](NC(=O)c1cn(C(C)C)c2ccccc2c1=O)C(C)(C)C)C(=O)C(=O)NC1CC1 [Compound 135] | > 0.5 |
| CCC[C@H](NC(=O)[C@@H]1C[C@]2(CC(c3ccc4c(c3)OCO4)=NO2)CN1C(=O)[C@@H](NC(=O)O[C@H]1CCOC1)C(C)(C)C)C(=O)C(N)=O [Compound 422] | 0.1 to 0.5 |
| CCC[C@H](NC(=O)[C@@H]1C[C@]2(CC(c3cccc(Cl)c3)=NO2)CN1C(=O)[C@@H](NC(=O)OCC)C(C)(C)C)C(=O)C(=O)NC1CC1 [Compound 407] | 0.1 to 0.5 |
| CCC[C@H](NC(=O)[C@@H]1C[C@]2(CC(c3cccc(Cl)c3)=NO2)CN1C(=O)[C@@H](NC(=O)NCC(N)=O)C(C)(C)C)C(=O)C(=O)NC1CC1 [Compound 94] | < 0.1 |
| CCC[C@H](NC(=O)[C@@H]1C[C@]2(CC(c3ccc(F)c(C(F)(F)F)c3)=NO2)CN1C(=O)O[C@H]1CCOC1)C(=O)C(=O)NC1CC1 [Compound 451] | > 0.5 |
| CCC[C@H](NC(=O)[C@@H]1C[C@]2(CC(c3cccc(Cl)c3)=NO2)CN1C(=O)[C@@H](NC(=O)C(C)(C#N)Cc1ccccc1)C(C)(C)C)C(=O)C(=O)NC1CC1 (stereo partly drawn) [Compound 538] | > 0.5 |

| SMILES | Ki [µM] |
| --- | --- |
| CCC[C@H](NC(=O)[C@@H]1C[C@]2(CC(c3ccccc3)=NO2)CN1C(=O)[C@@H](NC(=O)O[C@H]1CCOC1)C(C)(C)C)C(=O)C(=O)NC1CC1 [Compound 202] | > 0.5 |
| CCC[C@H](NC(=O)[C@@H]1C[C@]2(CC(c3ccc(OC)cc3OC)=NO2)CN1C(=O)[C@@H](NC(=O)O[C@H]1CCOC1)C(C)(C)C)C(=O)C(=O)NC1CC1 [Compound 516] | > 0.5 |
| CCC[C@H](NC(=O)[C@@H]1C[C@]2(CC(c3cccc(Cl)c3)=NO2)CN1C(=O)[C@@H](Nc1ncc(C)cc1[N+](=O)[O-])C(C)(C)C)C(=O)C(=O)NC1CC1 [Compound 345] | > 0.5 |
| CCC[C@H](NC(=O)[C@@H]1C[C@]2(CC(c3cccc(Cl)c3)=NO2)CN1C(=O)[C@@H](NC(=O)CC1CCOCC1)C(C)(C)C)C(=O)C(=O)NC1CC1 [Compound 92] | 0.1 to 0.5 |
| CCC[C@H](NC(=O)[C@@H]1C[C@]2(CC(c3ccc(Cl)cc3)=NO2)CN1C(=O)[C@@H](NC(=O)CC1CCCCC1)C(C)(C)C)C(=O)C(=O)NC1CC1 [Compound 55] | 0.1 to 0.5 |
| CCC[C@H](NC(=O)[C@@H]1C[C@]2(CC(c3cccc(-c4ccncc4)c3)=NO2)CN1C(=O)[C@@H](NC(=O)O[C@H]1CCOC1)C(C)(C)C)C(=O)C(=O)NC1CC1 [Compound 425] | > 0.5 |
| CCC[C@H](NC(=O)[C@@H]1C[C@]2(CC(c3cc(Cl)cc(Cl)c3)=NO2)CN1C(=O)[C@@H](NC(=O)CC1CCOCC1)C(C)(C)C)C(=O)C(=O)NC1CC1 [Compound 285] | 0.1 to 0.5 |
| CCC[C@H](NC(=O)[C@@H]1C[C@]2(CC(c3cccc(Cl)c3)=NO2)CN1C(=O)[C@@H](NC(=O)C1CCCCC1C(=O)N1CCCC1)C(C)(C)C)C(=O)C(=O)NC1CC1 (stereo partly drawn) [Compound 311] | > 0.5 |
| CCC[C@H](NC(=O)[C@@H]1C[C@]2(CC(c3cccc(Cl)c3)=NO2)CN1C(=O)[C@@H](NC(=O)OCc1cc(F)ccc1F)C(C)(C)C)C(=O)C(=O)NC1CC1 [Compound 561] | 0.1 to 0.5 |
| CCC[C@H](NC(=O)[C@@H]1C[C@]2(CC(c3cccc(Cl)c3)=NO2)CN1C(=O)[C@@H](NC(=O)CCc1cccnc1)C(C)(C)C)C(=O)C(=O)NC1CC1 [Compound 504] | 0.1 to 0.5 |
| CCC[C@H](NC(=O)[C@@H]1C[C@]2(CC(c3cccc(Cl)c3)=NO2)CN1C(=O)[C@@H](NC(=O)NCC)C1CCCCC1)C(=O)C(=O)NC1CC1 [Compound 103] | 0.1 to 0.5 |
| CCC[C@H](NC(=O)[C@@H]1C[C@]2(CC(c3ccccc3)=NO2)CN1C(=O)[C@@H](NS(=O)(=O)c1cccc2ccccc12)C(C)(C)C)C(=O)C(=O)NC1CC1 [Compound 101] | > 0.5 |
| C#CCCC(NC(=O)[C@@H]1C[C@]2(CC(c3cccc(Cl)c3)=NO2)CN1C(=O)[C@@H](NC(=O)CC1CCCCC1)C(C)(C)C)C(=O)C(=O)NC1CC1 (stereo partly drawn) [Compound 453] | 0.1 to 0.5 |
| CCC[C@H](NC(=O)[C@@H]1C[C@]2(CC(c3ccc(CC)o3)=NO2)CN1C(=O)[C@@H](NC(=O)CC1CCCCC1)C(C)(C)C)C(=O)C(=O)NC1CC1 [Compound 256] | 0.1 to 0.5 |
| CCC[C@H](NC(=O)[C@@H]1C[C@]2(CC(c3cccc(Cl)c3)=NO2)CN1C(=O)[C@@H](NC(=O)c1cc(NC(C)=O)sc1C(C)=O)C(C)(C)C)C(=O)C(=O)NC1CC1 [Compound 161] | > 0.5 |
| CCC[C@H](NC(=O)[C@@H]1C[C@]2(CC(c3ccc(OC)cc3)=NO2)CN1C(=O)[C@@H](NC(=O)CC1CCOCC1)C(C)(C)C)C(=O)C(=O)NC1CC1 [Compound 16] | > 0.5 |
| CCC[C@H](NC(=O)[C@@H]1C[C@]2(CC(c3cccc(Cl)c3)=NO2)CN1C(=O)[C@@H](NC(=O)C1CC(=O)N(Cc2cccs2)C1)C(C)(C)C)C(=O)C(=O)NC1CC1 (stereo partly drawn) [Compound 216] | > 0.5 |
| CCC[C@H](NC(=O)[C@@H]1C[C@]2(CC(c3cc(Cl)c(OC)cc3OC)=NO2)CN1C(=O)[C@@H](NC(=O)OCc1ccccc1)C(C)(C)C)C(=O)C(=O)NC1CC1 [Compound 110] | 0.1 to 0.5 |
| CCC[C@H](NC(=O)[C@@H]1C[C@]2(CC(c3cc(Cl)c(OC)cc3OC)=NO2)CN1C(=O)OCc1ccccc1Cl)C(=O)C(=O)NC1CC1 [Compound 210] | > 0.5 |
| CCC[C@H](NC(=O)[C@@H]1C[C@]2(CC(c3cccc(Cl)c3)=NO2)CN1C(=O)[C@@H](NC(=O)Cc1cc(=O)[nH]c(=O)[nH]1)C(C)(C)C)C(=O)C(=O)NC1CC1 [Compound 553] | 0.1 to 0.5 |
| CCC[C@H](NC(=O)[C@@H]1C[C@]2(CC(c3cccc(Cl)c3)=NO2)CN1C(=O)[C@@H](NC(=O)CC(C)C)C(C)(C)C)C(=O)C(=O)NC1CC1 [Compound 532] | > 0.5 |
| CCC[C@H](NC(=O)[C@@H]1C[C@]2(CC(c3ccc(Cl)cc3)=NO2)CN1C(=O)[C@@H](NC(=O)CC1CCOCC1)C(C)(C)C)C(=O)C(=O)NC1CC1 [Compound 299] | > 0.5 |
| CCC[C@H](NC(=O)C1C[C@]2(CC(c3ccc4c(c3)OCO4)=NO2)CN1C(=O)c1ccc[nH]1)C(=O)C(=O)NC1CC1 (stereo partly drawn) [Compound 51] | > 0.5 |
| CCC[C@H](NC(=O)[C@@H]1C[C@]2(CC(c3cccc(Cl)c3)=NO2)CN1C(=O)[C@@H](NC(=O)OCc1ccncc1)C(C)(C)C)C(=O)C(=O)NC1CC1 [Compound 357] | 0.1 to 0.5 |
